Source: US20060276534A1, “Methods of decreasing calcification” (Amgen Inc., priority 2005, published 2006)

Legend:
5/6 Nx rats [1] = assay: Ex vivo assessment of vascular calcification: aortic calcium and phosphorus content, von Kossa staining (Example 1); type: in vivo, rat; settings: 14 days; for Mineral deposits in the aorta (von Kossa staining): single agents
Experimental: (§1) The rodent model of CKD used in these studies was induced by 5/6 nephrectomy (5/6 Nx), a two-step procedure that reduces the original functional renal mass by five-sixths (5/6). In the first step, animals were anesthetized using xylazine (5 mg/kg, ip) and ketamine (80 mg/kg, ip), a 5-8 mm incision was made on the left medio-lateral surface of the abdomen, and the left kidney was exposed. The left renal artery was visualized and 2 of the 3 branches tightly ligated, after which the kidney was inspected for infarct and returned to an anatomically neutral position within the peritoneal cavity. The abdominal wall and skin incisions were closed with suture, and the rat placed back into its home cage. After 1 week of recovery, the animal was reanesthetised and a 5-8 mm incision was made on the right medio-lateral surface of the abdomen. The right kidney was exposed and unencapsulated, the renal pedicle clamped and ligated, and the kidney was removed. The ligated pedicle was returned to a neutral anatomical position and the abdomen and skin incisions closed with suture materials. The animal was allowed to recover in its home cage. Sham-operated animals underwent the same procedures without renal manipulation.
(§2) After the second surgery, the diet was changed to one with decreased calcium (0.6%) and increased phosphorus (0.9%) content. The rats were randomized (based on the normal distribution of baseline body weights) into 6 experimental groups: sham-operated (n=13) (used as a control), 5/6 Nx+vehicle (saline) (n=10), 5/6 Nx+calcitriol 80 ng/kg (Calcijex, Abbot) ip every other day (n=10), 5/6 Nx+Compound A 1.5 mg/kg per day sc (n=10) (Amgen, Thousand Oaks, Calif. USA), 5/6 Nx+Compound A 3 mg/kg per day sc (n=10), or 5/6 Nx+combination calcitriol 80 ng/kg and Compound A 1.5 mg/kg (n=10) dosed as above. Treatments were maintained for 14 days. The rats were sacrificed by aortic puncture and exsanguination under general anesthesia (ip sodium thiopenthal) 24 hours after the last dose of drug.
Following sacrifice, the abdominal aortas were dissected and divided in two parts. One part was fixated in 10% buffered formalin and subsequently sectioned and stained for mineralization by the von Kossa method. The other was dimineralized in 10% formic acid, and the arterial tissue calcium and phosphorous content measured in the supernatant according to the method described by Price et al Arterioscler Thromb Vasc Biol 20:317-27, 2000.

5/6 Nx rats [2] = assay: Vascular calcification regression in 5/6 Nx rats on high phosphorus diet with calcitriol; type: in vivo, rat
Experimental: Animals were 5/6 Nx as previously described and placed on a high phosphorus diet (0.6% Ca; 1.2% P) for 14 days. Animals were divided into four groups (A,B,C and D n=4-5 animals per group), one group (A) received vehicle (saline 0.2 ml i.p.) while the remaining three groups (B,C and D) received calcitriol (80 ng/kg every other day i.p.) for the course of the study (28 days). On day 14 two groups (C and D) were converted to normal diet (Ca 0.9%; P 0.6%) and group C was administered Compound A at 3 mg/kg daily p.o.), while group D received vehicle (0.5 ml of 10% captisol in water p.o.) daily. The remaining groups (A and B) were kept on the high phosphorus diet and administered either calcitriol or vehicle for the course of the study (28 days). On day 28 all animals were sacrificed (CO2) and the aortas removed for determining aortic P and Ca content (mg/g of tissue) as previously described

5/6 Nx rats [3] = assay: Blood chemistries in 5/6 nephrectomy rat model of CKD (Example 1); type: in vivo; settings: 14 days
From the text: Male Wistar rats weighing 250 g were purchased from the Animal Breeding Facility of the University of Cordoba (Spain). Rats were housed with a 12 hr/12 hr light/dark cycle and given ad libitum access to normal diet (calcium=0.9%, phosphorus=0.6%). The experimental protocols were reviewed and approved by the Ethics Committee for Animal Research of the Universidad de Cordoba (Spain), and all animals received humane care in compliance with the Principles of Laboratory Animal Care, formulated by the National Society for Medical Research and the Guide for the Care and Use of Laboratory Animals prepared by the National Academy of Science.
as §1, §2
Blood for chemistry analyses was collected from the abdominal aorta at the end of the treatment period. Blood for measurements of ionized calcium levels was collected in heparinized syringes and immediately analyzed using a Ciba-Corning 634 ISE Ca++/pH Analyzer (Ciba-Corning Essex, England). Afterwards, plasma was separated by centrifugation and stored at −70° C. until assayed. PTH levels were quantified according to the vendor's instructions using a rat PTH(1-34) immunoradiometric assay kit (Immunotopics, San Clemente, CA). Serum creatinine, phosphorous, and total calcium were measured by spectrophotometry (Sigma Diagnostics, St. Louis, Mo., USA).
Values were expressed as the mean±standard error (SE). The difference between means for two different groups was determined by t test; the difference between means for three or more groups was assessed by ANOVA. P<0.05 was considered significant.

5/6 Nx rats [4] = assay: Serum PTH, ionized Ca, P and creatinine in 5/6 Nx rats given paricalcitol and/or Compound B (Example 3); settings: 14 days
5/6 Nx rats [5] = assay: Ca and P content of thoracic aorta in 5/6 Nx rats given paricalcitol and/or Compound B (Example 3); type: in vivo, rat; settings: 14 days
From the text: Wistar rats (200-250g), fed a 0.6% Ca and 1.2% P diet, were 5/6 nephrectomized (5/6 Nx) or sham-operated (sham).

5/6 Nx rats [6] = assay: Soft tissue mineralization by Von Kossa staining in 5/6 Nx rats (Example 4); type: in vivo, rat; settings: 5/6 Nx rats, 14 days
From the text: Wistar rats (200-250g), fed a 0.6% Ca and 1.2% P diet, were 5/6 nephrectomized (5/6 Nx).

[7] = concurrent treatment with Compound A 1.5 mg/kg and calcitriol 80 ng/kg
[8] = Group C: normal diet from day 14 + Compound A 3 mg/kg daily p.o. while still receiving calcitriol, vs group D, day 28
[9] = Compound A 1.5 mg/kg per day sc, calcitriol 80 ng/kg ip every other day, or both, mean±SE
[10] = Compound A 3 mg/kg per day sc, mean±SE
[11] = 5/6 Nx rats, compared to 5/6 Nx+vehicle
[12] = serum, 5/6Nx rats, paricalcitol 240 ng/kg every 48 hr ip, Compound B 1.5 mg/kg every 48 hr sc
[13] = 5/6 Nx rats, compared to vehicle treated 5/6 Nx animals (Compound B also vs sham)
[14] = thoracic aorta, 5/6Nx rats, paricalcitol 240 ng/kg every 48 hr ip, Compound B 1.5 mg/kg every 48 hr sc
[15] = Group B: high phosphorus diet + calcitriol 80 ng/kg every other day i.p. 28 days, vs Group A (vehicle)
[16] = calcitriol 80 ng/kg every 48 hr ip

## COc1cccc([C@@H](C)NCCCc2ccccc2Cl)c1.Cl [Compound A, N-(3-[2-chlorophenyl]-propyl)-R-α-methyl-3-methoxybenzylamine HCl]
5/6 Nx rats [1]; Compound A alone 1.5 or 3 mg/kg
  Raised phosphorus content in the aortic tissue, in words: did not
5/6 Nx rats [1]; addition of Compound A 1.5 mg/kg to the calcitriol-treatment regimen
  Development of aortic calcification (von Kossa staining): prevented the development of aortic calcification
5/6 Nx rats [1]; [7]
  Calcitriol-induced increase in aortic calcium: significantly (P=0.002) attenuated
  Calcitriol-induced increase in aortic phosphorus: significantly (P=0.013) attenuated
5/6 Nx rats [1]
  Mineral deposits in the aorta (von Kossa staining): not observed
5/6 Nx rats [2]; [8]
  Aortic calcium content: lower
  Aortic phosphorus content: significant (p<0.05) reduction
5/6 Nx rats [3]; Compound A 1.5 mg/kg per day sc alone or with calcitriol 80 ng/kg, mean±SE
  Serum PTH concentration: 73.5 ± 12.8 pg/mL
5/6 Nx rats [3]; Compound A 1.5 mg/kg per day sc included with calcitriol 80 ng/kg
  Calcitriol mediated increase in serum creatinine levels: decreased
5/6 Nx rats [3]; [9]
  Serum ionized calcium levels: 1.20 ± 0.02 mmol/L
  Serum phosphorus levels: 6.6 ± 0.3 mg/dL
5/6 Nx rats [3]; [10]
  Serum ionized calcium levels: 1.22 ± 0.02 mmol/L
  Serum phosphorus levels: 6.9 ± 0.4 mg/dL

## C[C@H](/C=C/[C@H](C)C(C)(C)O)[C@H]1CC[C@H]2/C(=C/C=C3C[C@@H](O)C[C@H](O)C3)CCC[C@]12C [Paricalcitol, paricalcitol, reference compound]
5/6 Nx rats [4]; [11]
  Blood ionized calcium, change in words: no changes
  Creatinine, change in words: no changes
  Serum P levels, change in words: no changes
  Serum PTH levels, change in words: significantly (p<0.05) decreased
5/6 Nx rats [4]; 5/6Nx rats, paricalcitol 240 ng/kg every 48 hr ip, Compound B 1.5 mg/kg every 48 hr sc
  Creatinine: 2.32 ± 0.43 mg/dL
5/6 Nx rats [4]; [12]
  P: 14.7 ± 2.1 mg/dL
  PTH: 250 ± 61 pg/mL
5/6 Nx rats [5]; [13]
  Aortic Ca content, change in words: significantly increased
  Aortic P content, change in words: significantly increased
5/6 Nx rats [5]; [14]
  Aortic Ca: 9.5 ± 2.2 mg/g
  Aortic P: 6.2 ± 2.4 mg/g
5/6 Nx rats [6]; paricalcitol 240 ng/kg every 48 hr ip
  Mineralization in kidney (Von Kossa staining): increased mineralization

## C=C1/C(=C\C=C2/CCC[C@]3(C)[C@@H]([C@H](C)CCCC(C)(C)O)CC[C@@H]23)C[C@@H](O)C[C@@H]1O [calcitriol, reference compound]
5/6 Nx rats [1]; calcitriol 80 ng/kg ip every other day
  Phosphorus content in the aortic tissue: 2.1±1 mg/g tissue
5/6 Nx rats [1]; calcitriol 80 ng/kg ip every other day, mean±SE
  Aortic calcium content: 4.2±1.1 mg/g tissue
5/6 Nx rats [1]
  Mineral deposits in the aorta (von Kossa staining): marked von Kossa staining
5/6 Nx rats [2]; [15]
  Aortic calcium content: significant (p<0.05) increases
  Aortic phosphorus content: significant (p<0.05) increases
5/6 Nx rats [3]; [9]
  Serum ionized calcium levels: 1.28 ± 0.02 mmol/L
  Serum phosphorus levels: 10.2 ± 0.9 mg/dL
5/6 Nx rats [3]; calcitriol 80 ng/kg ip every other day, alone or with Compound A 1.5 mg/kg per day sc, mean±SE
  Serum creatinine levels: 1.05 ± 0.07 mg/dL
5/6 Nx rats [6]; [16]
  Mineralization in heart (Von Kossa staining): increased mineralization
  Mineralization in kidney (Von Kossa staining): increased mineralization
  Mineralization in lung (Von Kossa staining): increased mineralization
